Test [1] deals with T1, EP2 (Homo sapiens, UniProt P43116). In words: EP2 Ca2+ signal functional assay. Format: cell-based. The source says: (§1) U.S. Pat. No. 7,427,685 incorporated by reference herein, describes the methods used to obtain the in vitro data in Table 2 below.
The target of test [2] is T1, EP2. Nature of the test: EP2 binding (Ki).
Description: as §1

Test [3] deals with T2, EP4 (Homo sapiens, UniProt P35408). In words: EP4 Ca2+ signal functional assay. The class given is cell-based.
T2 sequence (P35408 whole entry): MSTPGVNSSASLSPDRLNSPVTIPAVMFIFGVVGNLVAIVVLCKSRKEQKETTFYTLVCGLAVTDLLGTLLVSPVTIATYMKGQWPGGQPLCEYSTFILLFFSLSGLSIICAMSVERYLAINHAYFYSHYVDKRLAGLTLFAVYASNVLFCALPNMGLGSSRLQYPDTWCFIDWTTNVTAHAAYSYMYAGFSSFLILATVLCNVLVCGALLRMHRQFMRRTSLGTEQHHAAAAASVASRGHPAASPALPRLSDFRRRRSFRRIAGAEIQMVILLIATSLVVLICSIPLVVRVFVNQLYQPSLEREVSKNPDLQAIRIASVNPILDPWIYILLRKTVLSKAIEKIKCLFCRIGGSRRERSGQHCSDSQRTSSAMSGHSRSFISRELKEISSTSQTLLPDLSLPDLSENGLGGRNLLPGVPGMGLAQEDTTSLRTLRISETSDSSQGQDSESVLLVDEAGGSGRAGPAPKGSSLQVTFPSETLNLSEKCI
Description: as §1

In test [4] the target is T1, EP2. Nature of the test: EP2 cAMP functional assay. The class given is cell-based.
Description: as §1

Test [5] deals with T2, EP4. Nature of the test: EP4 binding (Ki).
Description: as §1

For test [6], the target named is T3, DP (Homo sapiens, UniProt Q13258).
T3 sequence (Q13258 1-359): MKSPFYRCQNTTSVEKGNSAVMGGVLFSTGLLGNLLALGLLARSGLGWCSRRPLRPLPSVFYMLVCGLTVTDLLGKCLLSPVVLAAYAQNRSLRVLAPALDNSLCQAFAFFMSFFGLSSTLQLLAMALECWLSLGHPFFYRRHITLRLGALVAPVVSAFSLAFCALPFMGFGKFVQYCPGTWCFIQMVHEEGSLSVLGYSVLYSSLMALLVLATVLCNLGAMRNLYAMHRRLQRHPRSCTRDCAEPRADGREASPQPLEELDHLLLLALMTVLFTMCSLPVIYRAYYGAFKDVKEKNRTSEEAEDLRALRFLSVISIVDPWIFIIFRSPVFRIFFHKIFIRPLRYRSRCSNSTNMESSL
In words: Other receptors Ca2+ functional assay, DP. Format: cell-based.
Description: as §1

Test [7] concerns the target T4, EP3 (Homo sapiens, UniProt P43115).
T4 sequence (P43115 1-390): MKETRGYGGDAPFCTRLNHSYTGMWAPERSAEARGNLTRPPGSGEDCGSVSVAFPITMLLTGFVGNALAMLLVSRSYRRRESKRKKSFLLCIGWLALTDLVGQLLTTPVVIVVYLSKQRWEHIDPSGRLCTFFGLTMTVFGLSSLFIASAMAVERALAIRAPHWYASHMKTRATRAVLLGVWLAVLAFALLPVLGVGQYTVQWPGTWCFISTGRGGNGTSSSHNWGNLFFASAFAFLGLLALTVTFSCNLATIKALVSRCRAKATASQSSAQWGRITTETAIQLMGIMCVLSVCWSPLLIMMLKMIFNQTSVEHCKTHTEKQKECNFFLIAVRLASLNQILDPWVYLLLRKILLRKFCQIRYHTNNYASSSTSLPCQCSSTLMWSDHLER
In words: Other receptors Ca2+ functional assay, EP3. The class given is cell-based.
Description: as §1

T1 sequence (P43116 whole entry): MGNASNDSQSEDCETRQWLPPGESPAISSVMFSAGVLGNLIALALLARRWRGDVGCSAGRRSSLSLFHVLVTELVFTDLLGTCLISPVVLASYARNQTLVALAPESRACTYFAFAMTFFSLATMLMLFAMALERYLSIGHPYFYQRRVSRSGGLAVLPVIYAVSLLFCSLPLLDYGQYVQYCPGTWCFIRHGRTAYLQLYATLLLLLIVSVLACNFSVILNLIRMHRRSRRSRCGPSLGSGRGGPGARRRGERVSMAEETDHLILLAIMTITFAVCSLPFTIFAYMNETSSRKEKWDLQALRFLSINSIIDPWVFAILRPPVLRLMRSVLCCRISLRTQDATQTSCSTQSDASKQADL

As to `CCCCCC1(CC[C@@H]2[C@@H](CCCc3ccc(C(=O)O)s3)[C@H](Cl)C[C@H]2O)CCCCC1` [Entry 5], the values for the EC50 in test [1], in test [3] and in test [4] were 2410 nM, 9330 nM and 152 nM, respectively. Also, the results for the Ki in test [2] and in test [5] were 1040 nM and 5060 nM, respectively.

In the case of `O=C(O)c1ccc(CCC[C@@H]2[C@@H](CCC3CCCCC3)[C@H](O)C[C@H]2Cl)s1` [Entry 3], the EC50 (in general, the concentration needed to bring the measured effect to its halfway point) in test [1] is 12 nM; in test [6] it was 548 nM; in test [3] it was 6640 nM; in test [4], 0.2 nM; in test [7], 9050 nM. The inhibitory constant (Ki) (usually the dissociation constant of the complex between target and ligand, obtained from inhibition or displacement) is 0.8 nM in test [2] and 2150 nM in test [5].

As to `O=C(O)c1ccc(CCC[C@@H]2[C@@H](CCC3CCCC3)[C@H](O)C[C@H]2Cl)s1` [compound 1], the half-maximal effective concentration (EC50) in test [1] was determined as 4 nM; in test [6], 259 nM; in test [3], 3070 nM; in test [4], 0.6 nM. The Ki was determined as 9 nM in test [2] and 2620 nM in test [5].

With `O=C(O)c1ccc(CCC[C@@H]2[C@@H](/C=C/C3CCCC3)[C@H](O)C[C@H]2Cl)s1` [Entry 2], the 50% effective concentration (EC50) in test [1] turned out to be 3 nM; in test [6], 191 nM; in test [3], 1350 nM; in test [4], 0.9 nM. Further, the Ki was found to be 10 nM in test [2] and 2740 nM in test [5].

Take `O=C(O)c1ccc(CCC[C@@H]2[C@@H](/C=C/C3CCCCC3)[C@H](O)C[C@H]2Cl)s1` [Entry 4]: the EC50 was 7 nM in test [1]; 2160 nM in test [6]; 3320 nM in test [3]; 0.5 nM in test [4]; 5220 nM in test [7]. In addition, the inhibition constant Ki in test [2] worked out at 4 nM; in test [5] it was 2710 nM.

(Values after patent US8299068B2, “Therapeutically active cyclopentanes” (Allergan, Inc., priority 2010, dated 2012).)
